# Measurements published in US20220088016A1, “CANCER TREATMENT USING MULTI-TARGETED KINASE INHIBITOR IN COMBINATION OF PROTEIN KINASE BIOMARKERS” (ZHEJIANG CROWNMAB BIOTECH CO. LTD., priority 2019, published 2022).
# Tests used:
# Assay in all cases: Kinase profiling
# Assay type in all cases: binding
# Conditions in all cases: read-out: % Ctrl @ 1000 nM
# MAPKAPK5 = MAPKAPK5 (Homo sapiens, UniProt Q8IW41)
# TAOK1 = TAOK1 (Homo sapiens, UniProt Q7L7X3)
# NLK = molecular target: T1, NLK (Homo sapiens, UniProt Q9UBE8)
# T1 construct: T7 phage fusion (said for most assays); made in house
# ADCK4 = ADCK4 (Homo sapiens, UniProt Q96D53)
# EPHB2 = EPHB2 (Homo sapiens, UniProt P29323)
# [1] = molecular target: EGFR (L747-T751del, Sins) (Homo sapiens, UniProt P00533, DEL747-750/T751S)
# [2] = molecular target: JAK1 (JH1domain-catalytic) (Homo sapiens, UniProt P23458)
# PRKD3 = PRKD3 (Homo sapiens, UniProt O94806)
# RET (M918T) = RET (M918T) (Homo sapiens, UniProt P07949, M918T)
# TNIK = TNIK (Homo sapiens, UniProt Q9UKE5)
# INSR = INSR (Homo sapiens, UniProt P06213)
# SGK2 = SGK2 (Homo sapiens, UniProt Q9HBY8)
# EPHB6 = EPHB6 (Homo sapiens, UniProt O15197)
# WEE1 = WEE1 (Homo sapiens, UniProt P30291)
# CASK = CASK (Homo sapiens, UniProt O14936)
# MYO3A = molecular target: T2, MYO3A (Homo sapiens, UniProt Q8NEV4)
# T2 construct: T7 phage fusion (said for most assays); made in house
# [3] = molecular target: RSK1 (Kin.Dom.2-C-terminal) (Homo sapiens, UniProt Q15418)
# YSK4 = YSK4 (Homo sapiens, UniProt Q56UN5)
# PKNB (M.tuberculosis) = PKNB (M.tuberculosis) (Mycobacterium tuberculosis, UniProt P9WI81)
# ASK1 = ASK1 (Homo sapiens, UniProt Q99683)
# STK35 = STK35 (Homo sapiens, UniProt Q8TDR2)
# p38-alpha = p38-alpha (Homo sapiens, UniProt Q16539)
# MEK6 = molecular target: T3, MEK6 (Homo sapiens, UniProt P52564)
# T3 construct: T7 phage fusion (stated for most kinases of the panel only); made in house; host or cells: T7 phage in E. coli (BL21-derived) or HEK-293 cells
# RET (V804M) = RET (V804M) (Homo sapiens, UniProt P07949, V804M)
# KIT-autoinhibited = KIT-autoinhibited (Homo sapiens, UniProt P10721)
# CDK4 = CDK4 (Homo sapiens, UniProt P11802)
# EGFR (L861Q) = EGFR (L861Q) (Homo sapiens, UniProt P00533, L861Q)
# PIKFYVE = PIKFYVE (Homo sapiens, UniProt Q9Y2I7)
# INSRR = INSRR (Homo sapiens, UniProt P14616)
# ABL2 = ABL2 (Homo sapiens, UniProt P42684)
# DAPK3 = DAPK3 (Homo sapiens, UniProt O43293)
# CAMK2G = CAMK2G (Homo sapiens, UniProt Q13555)
# MST2 = molecular target: T4, MST2 (Homo sapiens, UniProt Q13188)
# T4 construct: T7 phage fusion (stated for most kinases of the panel only); made in house; host or cells: T7 phage in E. coli (BL21-derived) or HEK-293 cells
# LATS1 = LATS1 (Homo sapiens, UniProt O95835)
# PFCDPK1 (P.falciparum) = PFCDPK1 (P.falciparum) (Plasmodium falciparum, UniProt P62344)
# NDR2 = molecular target: T5, NDR2 (Homo sapiens, UniProt Q9Y2H1)
# T5 construct: T7 phage fusion (said for most assays); made in house
# MAP4K2 = MAP4K2 (Homo sapiens, UniProt Q12851)
# CSNK1G3 = CSNK1G3 (Homo sapiens, UniProt Q9Y6M4)
# CSNK1G1 = CSNK1G1 (Homo sapiens, UniProt Q9HCP0)
# Chain of LATS1 (O95835 whole entry): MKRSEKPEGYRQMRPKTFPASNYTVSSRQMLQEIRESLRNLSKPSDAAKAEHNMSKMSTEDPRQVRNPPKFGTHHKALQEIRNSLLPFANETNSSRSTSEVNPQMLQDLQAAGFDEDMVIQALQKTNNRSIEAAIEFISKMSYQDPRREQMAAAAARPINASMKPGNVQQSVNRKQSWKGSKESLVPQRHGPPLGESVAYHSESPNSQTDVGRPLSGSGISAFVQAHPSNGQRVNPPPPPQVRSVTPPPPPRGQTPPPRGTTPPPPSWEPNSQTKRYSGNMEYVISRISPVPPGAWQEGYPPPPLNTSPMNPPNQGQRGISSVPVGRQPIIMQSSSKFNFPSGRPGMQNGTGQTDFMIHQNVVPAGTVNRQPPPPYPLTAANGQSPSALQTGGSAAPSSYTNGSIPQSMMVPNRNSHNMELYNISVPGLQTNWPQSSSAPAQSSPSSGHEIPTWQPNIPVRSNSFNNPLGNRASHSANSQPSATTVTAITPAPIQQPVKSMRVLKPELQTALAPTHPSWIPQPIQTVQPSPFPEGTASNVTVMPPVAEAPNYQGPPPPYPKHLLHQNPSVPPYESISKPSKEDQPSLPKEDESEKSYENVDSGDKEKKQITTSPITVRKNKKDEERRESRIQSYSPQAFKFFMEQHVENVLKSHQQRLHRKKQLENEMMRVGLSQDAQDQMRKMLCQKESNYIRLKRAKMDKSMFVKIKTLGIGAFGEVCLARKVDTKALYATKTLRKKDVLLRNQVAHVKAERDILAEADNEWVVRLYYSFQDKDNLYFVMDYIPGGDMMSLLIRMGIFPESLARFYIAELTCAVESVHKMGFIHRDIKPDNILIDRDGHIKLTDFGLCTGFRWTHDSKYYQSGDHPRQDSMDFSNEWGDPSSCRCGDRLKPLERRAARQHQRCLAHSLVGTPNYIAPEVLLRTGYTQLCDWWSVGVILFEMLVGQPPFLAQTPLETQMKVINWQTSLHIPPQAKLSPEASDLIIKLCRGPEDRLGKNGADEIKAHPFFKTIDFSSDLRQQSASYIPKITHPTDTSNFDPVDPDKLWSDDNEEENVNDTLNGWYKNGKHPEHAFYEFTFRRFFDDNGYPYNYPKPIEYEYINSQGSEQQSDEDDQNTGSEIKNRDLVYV
# Chain of EPHB6 (O15197 32-1021): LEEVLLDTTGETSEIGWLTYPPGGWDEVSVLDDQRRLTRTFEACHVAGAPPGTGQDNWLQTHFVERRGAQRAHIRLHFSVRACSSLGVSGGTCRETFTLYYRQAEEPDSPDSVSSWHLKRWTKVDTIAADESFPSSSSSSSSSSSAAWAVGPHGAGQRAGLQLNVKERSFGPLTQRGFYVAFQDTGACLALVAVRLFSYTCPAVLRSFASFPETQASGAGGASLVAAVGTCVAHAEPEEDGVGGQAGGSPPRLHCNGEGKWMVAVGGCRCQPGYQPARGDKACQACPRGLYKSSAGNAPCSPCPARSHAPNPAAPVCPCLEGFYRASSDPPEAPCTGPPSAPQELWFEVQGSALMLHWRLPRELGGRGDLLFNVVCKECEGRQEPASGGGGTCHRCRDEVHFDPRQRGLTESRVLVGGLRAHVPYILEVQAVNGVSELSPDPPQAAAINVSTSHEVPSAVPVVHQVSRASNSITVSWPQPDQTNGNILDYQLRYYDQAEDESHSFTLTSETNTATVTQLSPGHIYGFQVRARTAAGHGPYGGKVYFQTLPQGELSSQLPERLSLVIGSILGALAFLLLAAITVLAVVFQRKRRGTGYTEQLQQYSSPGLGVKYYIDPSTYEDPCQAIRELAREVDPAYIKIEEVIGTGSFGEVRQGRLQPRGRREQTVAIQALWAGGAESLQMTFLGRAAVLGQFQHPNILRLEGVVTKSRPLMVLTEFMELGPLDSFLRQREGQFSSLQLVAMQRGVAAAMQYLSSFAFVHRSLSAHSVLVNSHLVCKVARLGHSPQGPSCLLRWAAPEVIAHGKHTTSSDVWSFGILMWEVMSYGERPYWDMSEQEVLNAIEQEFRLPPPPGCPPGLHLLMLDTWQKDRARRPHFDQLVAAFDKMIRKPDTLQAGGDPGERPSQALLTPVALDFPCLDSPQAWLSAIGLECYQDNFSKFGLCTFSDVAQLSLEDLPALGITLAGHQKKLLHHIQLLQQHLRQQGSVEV
# Chain of WEE1 (P30291 whole entry): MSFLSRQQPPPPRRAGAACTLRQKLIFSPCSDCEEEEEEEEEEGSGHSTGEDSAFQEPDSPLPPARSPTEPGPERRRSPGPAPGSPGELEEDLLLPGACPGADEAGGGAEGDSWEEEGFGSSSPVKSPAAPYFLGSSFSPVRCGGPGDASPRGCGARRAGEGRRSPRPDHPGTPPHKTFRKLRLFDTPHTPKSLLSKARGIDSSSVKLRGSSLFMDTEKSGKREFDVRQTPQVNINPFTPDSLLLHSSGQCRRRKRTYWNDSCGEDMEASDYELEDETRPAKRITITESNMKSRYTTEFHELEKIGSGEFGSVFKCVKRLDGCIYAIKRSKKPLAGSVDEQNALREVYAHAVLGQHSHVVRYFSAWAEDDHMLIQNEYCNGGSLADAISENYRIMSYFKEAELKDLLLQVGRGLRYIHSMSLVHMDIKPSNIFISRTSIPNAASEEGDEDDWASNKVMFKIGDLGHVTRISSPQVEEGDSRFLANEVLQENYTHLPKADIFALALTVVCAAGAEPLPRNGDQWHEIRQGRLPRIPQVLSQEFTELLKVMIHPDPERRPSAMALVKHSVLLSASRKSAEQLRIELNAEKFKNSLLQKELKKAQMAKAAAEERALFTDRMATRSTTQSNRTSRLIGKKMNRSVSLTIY
# Chain of STK35 (Q8TDR2 whole entry): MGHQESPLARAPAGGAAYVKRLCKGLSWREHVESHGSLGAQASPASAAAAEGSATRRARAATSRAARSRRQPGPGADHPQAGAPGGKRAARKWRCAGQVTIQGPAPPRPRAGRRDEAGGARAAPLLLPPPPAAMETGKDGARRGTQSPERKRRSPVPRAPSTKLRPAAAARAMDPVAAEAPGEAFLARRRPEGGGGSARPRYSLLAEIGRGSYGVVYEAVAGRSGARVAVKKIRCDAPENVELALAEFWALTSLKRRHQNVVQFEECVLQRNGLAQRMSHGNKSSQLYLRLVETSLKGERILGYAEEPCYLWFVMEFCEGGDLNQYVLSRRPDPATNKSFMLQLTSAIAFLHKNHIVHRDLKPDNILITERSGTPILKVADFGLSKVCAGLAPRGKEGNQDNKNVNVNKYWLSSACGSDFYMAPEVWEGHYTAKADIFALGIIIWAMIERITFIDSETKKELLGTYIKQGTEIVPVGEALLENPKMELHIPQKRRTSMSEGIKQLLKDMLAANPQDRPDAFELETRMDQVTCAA
# Chain of CASK (O14936 whole entry): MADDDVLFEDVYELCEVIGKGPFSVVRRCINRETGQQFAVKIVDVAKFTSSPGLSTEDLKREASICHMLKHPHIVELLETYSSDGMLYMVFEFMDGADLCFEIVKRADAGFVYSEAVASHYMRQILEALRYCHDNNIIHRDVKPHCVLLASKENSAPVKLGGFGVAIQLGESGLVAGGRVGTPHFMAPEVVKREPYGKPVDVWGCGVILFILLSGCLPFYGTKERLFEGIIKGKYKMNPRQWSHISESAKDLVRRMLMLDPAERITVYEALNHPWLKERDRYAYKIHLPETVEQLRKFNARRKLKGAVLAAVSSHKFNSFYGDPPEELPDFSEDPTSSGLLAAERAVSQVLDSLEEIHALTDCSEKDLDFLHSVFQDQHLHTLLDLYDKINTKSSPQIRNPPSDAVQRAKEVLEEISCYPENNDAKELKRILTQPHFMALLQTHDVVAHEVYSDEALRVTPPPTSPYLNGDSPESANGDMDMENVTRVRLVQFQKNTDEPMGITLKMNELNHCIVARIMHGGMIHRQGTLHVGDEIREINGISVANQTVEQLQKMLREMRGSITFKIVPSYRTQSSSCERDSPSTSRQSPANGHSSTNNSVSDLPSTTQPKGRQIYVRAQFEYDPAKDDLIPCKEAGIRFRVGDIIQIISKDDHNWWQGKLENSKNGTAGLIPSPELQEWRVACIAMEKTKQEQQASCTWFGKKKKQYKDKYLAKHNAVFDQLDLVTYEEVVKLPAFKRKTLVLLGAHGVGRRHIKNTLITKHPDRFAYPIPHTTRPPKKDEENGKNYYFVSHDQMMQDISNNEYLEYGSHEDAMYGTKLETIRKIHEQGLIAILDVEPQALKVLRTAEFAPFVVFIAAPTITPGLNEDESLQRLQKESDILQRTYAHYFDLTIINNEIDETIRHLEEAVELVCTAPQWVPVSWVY
# Chain of RSK1 (Kin.Dom.2-C-terminal) (Q15418 418-675 limits assumed): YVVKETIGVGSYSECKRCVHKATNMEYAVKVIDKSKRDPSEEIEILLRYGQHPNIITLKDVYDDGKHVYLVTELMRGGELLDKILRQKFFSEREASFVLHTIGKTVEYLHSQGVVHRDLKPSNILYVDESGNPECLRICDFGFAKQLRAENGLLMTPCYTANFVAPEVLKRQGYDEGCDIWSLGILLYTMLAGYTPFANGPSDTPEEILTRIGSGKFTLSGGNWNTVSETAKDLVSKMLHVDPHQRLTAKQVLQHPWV
# Chain of CDK4 (P11802 whole entry): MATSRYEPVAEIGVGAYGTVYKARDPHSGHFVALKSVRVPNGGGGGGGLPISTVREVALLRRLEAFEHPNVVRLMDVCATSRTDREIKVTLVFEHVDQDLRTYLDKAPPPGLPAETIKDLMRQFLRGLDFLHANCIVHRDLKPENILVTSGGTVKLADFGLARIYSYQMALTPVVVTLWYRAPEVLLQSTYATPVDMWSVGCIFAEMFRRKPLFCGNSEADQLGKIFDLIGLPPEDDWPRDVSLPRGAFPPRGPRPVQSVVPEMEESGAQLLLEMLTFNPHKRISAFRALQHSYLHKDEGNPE
smiles,measurement,setting,value
Cc1cc(Oc2cc(NC(=O)C3CC3)ncn2)ccc1NC(=O)Nc1ccc(Cl)c(C(F)(F)F)c1 [CBT-102],remaining activity at 1 µM,MAPKAPK5,93%
same,remaining activity at 1 µM,TAOK1,49%
same,remaining activity at 1 µM,NLK,16%
same,remaining activity at 1 µM,ADCK4,88%
same,remaining activity at 1 µM,EPHB2,44%
same,remaining activity at 1 µM,[1],88%
same,remaining activity at 1 µM,[2],78%
same,remaining activity at 1 µM,PRKD3,91%
same,remaining activity at 1 µM,RET (M918T),0.1%
same,remaining activity at 1 µM,TNIK,8.3%
same,remaining activity at 1 µM,INSR,100%
same,remaining activity at 1 µM,SGK2,92%
same,remaining activity at 1 µM,EPHB6,14%
same,remaining activity at 1 µM,WEE1,92%
same,remaining activity at 1 µM,CASK,98%
same,remaining activity at 1 µM,MYO3A,81%
same,remaining activity at 1 µM,[3],94%
same,remaining activity at 1 µM,YSK4,9.6%
same,remaining activity at 1 µM,PKNB (M.tuberculosis),100%
same,remaining activity at 1 µM,ASK1,91%
same,remaining activity at 1 µM,STK35,93%
same,remaining activity at 1 µM,p38-alpha,0%
same,remaining activity at 1 µM,MEK6,96%
same,remaining activity at 1 µM,RET (V804M),3.3%
same,remaining activity at 1 µM,KIT-autoinhibited,58%
same,remaining activity at 1 µM,CDK4,100%
same,remaining activity at 1 µM,EGFR (L861Q),56%
same,remaining activity at 1 µM,PIKFYVE,91%
same,remaining activity at 1 µM,INSRR,100%
same,remaining activity at 1 µM,ABL2,40%
same,remaining activity at 1 µM,DAPK3,96%
same,remaining activity at 1 µM,CAMK2G,100%
same,remaining activity at 1 µM,MST2,92%
same,remaining activity at 1 µM,LATS1,80%
same,remaining activity at 1 µM,PFCDPK1 (P.falciparum),53%
same,remaining activity at 1 µM,NDR2,100%
same,remaining activity at 1 µM,MAP4K2,91%
same,remaining activity at 1 µM,CSNK1G3,96%
same,remaining activity at 1 µM,CSNK1G1,100%
